Results as given in ChEMBL document CHEMBL1130880, “Synthesis and in vitro cytotoxicity of C(20)(RS)-camptothecin analogues modified at both B (or A) and E ring” (Bioorg Med Chem Lett, 1998).

Experiments:
Assay type in all cases: functional, cell-based
L1210 = test: Compound was evaluated for in vitro antiproliferative activity against L1210 mouse leukemia cell line
A 172 = test: Compound was evaluated for in vitro antiproliferative activity against A172 human CNS cancer cell line
Caov-3 cell line = test: Compound was evaluated for in vitro antiproliferative activity against CAOV-3 human ovarian cancer cell line
[1] = system: KATO III stomach cancer cell line; test: Compound was evaluated for in vitro antiproliferative activity against KATO-III human gastric cancer cell line
DLD-1 = test: Compound was evaluated for in vitro antiproliferative activity against DLD-1 human colon cancer cell line

| Compound | IC50 (L1210) [nM] | IC50 (A 172) [nM] | IC50 (Caov-3 cell line) [nM] | IC50 [1] [nM] | IC50 (DLD-1) [nM] |
| --- | --- | --- | --- | --- | --- |
| CCC1(O)C(=O)OCc2c1cc1n(c2=O)Cc2cc3ccccc3nc2-1 (configuration not stated) | 35 | 29 | 32 | 448 | 102 |
| CCOCOCCC1(O)C(=O)OCc2c1cc1n(c2=O)Cc2c-1nc1cc3c(cc1c2CCl)OCCO3 (configuration not stated) | – | – | 3760 | 5920 | 3880 |
| CCOCOCCC1(O)C(=O)OCc2c1cc1n(c2=O)Cc2c-1nc1ccccc1c2CCNC(C)C (configuration not stated) | 14100 | 5460 | 24 | 4210 | 2100 |
| COCOCCC1(O)C(=O)OCc2c1cc1n(c2=O)Cc2cc3ccccc3nc2-1 (configuration not stated) | 440 | 2620 | 560 | 320 | 1860 |
| COCOCCC1(O)C(=O)OCc2c1cc1n(c2=O)Cc2c-1nc1cc3c(cc1c2CCl)OCCO3 (configuration not stated) | 307 | 29 | 3 | 1460 | 108 |
| O=C1OCc2c(cc3n(c2=O)Cc2c-3nc3cc4c(cc3c2CCl)OCCO4)C1(O)CCO (configuration not stated) | 898 | 391 | 10 | 135 | 55 |
| CCC1(O)C(=O)OCc2c1cc1n(c2=O)Cc2c-1nc1ccccc1c2CCNC(C)C (configuration not stated) | 460 | 167 | 4 | 623 | 276 |
| CC(C)NCCc1c2c(nc3ccccc13)-c1cc3c(c(=O)n1C2)COC(=O)C3(O)CCO (configuration not stated) | 6730 | 3560 | 483 | 4400 | 619 |
| CCC1(O)C(=O)OCc2c1cc1n(c2=O)Cc2c-1nc1cc3c(cc1c2CCl)OCCO3 (configuration not stated) | 14000 | 54 | 87 | 6110 | 2780 |
| COCOCCC1(O)C(=O)OCc2c1cc1n(c2=O)Cc2c-1nc1ccccc1c2CCNC(C)C (configuration not stated) | – | 12200 | 91 | 3270 | 549 |
